From patent publication US20220211731A1, “COMPOSITION FOR PROMOTING GLP-1 SECRETION” (SUNTORY HOLDINGS LIMITED, priority 2019, published 2022)

Tests used:
H716 = assay: GLP-1 secretion amount of sweeteners, Experimental Example 1; format: cell-based, human; settings: H716, stock solution added, quantitation after further 24 hours, PBS as negative control, FIG. 1
Protocol: RebA, RebB, RebM, RebN, RebD, RebC, MogV, and stevioside were examined for their GLP-1 secretion-promoting effects. Specifically, the amount of GLP-1 secretion was measured by the following procedures.
Each test substance B, C, D, E, F, G, I, or J vas dissolved in PBS (Thermo Fisher Scientific Inc.) (Cat. No. 14190250) to obtain a stock solution. The concentration of the stock solution is shown below:
B (RebA); 5 mM, C (RebB); 1M, D (RebM); 2.5 mM, E (RebN); 1M, F (RebD); 2.5 mM, G (RebC); 2.5 mM, I (MogV); 1M, J(stevioside);1M
H716 (ATCC) (Cat. No. ATCC® CCL-251) was cultured in RPMI 1640 (10% FBS ((Thermo Fisher Scientific Inc.) (Cat. No. 10439024), 1 mM Sodium Pyruvate) in an incubator at 37° C., 5% CO2.
The preculture was performed for 2 weeks, and the cells were sufficiently recovered, and then cell stocks were prepared.
Cells were seeded in 96-well plates at 2×10^5 cells/90 μL (high) per well (N=4). At this time, the content of FBS in the medium was lowered to 0.5% to suppress cell proliferation.
After 24 hours, the sample at the highest concentration (i.e., stock solution) was added by 10 each.
After further 24 hours, quantitation of GLP-1 was performed. Specific procedures were followed the user guide of Human GLP-1 (7-36 amide) immunoassay kit (Cat. No. AL359) (Lot number 2361115) provided by PerkinElmer, Inc. PBS was used as a negative control (no sample).

[1] = Measurement of surface tension by plate method; format: physicochemical; settings: compared with other glycosides
Protocol: Surface tension Q is measured by a plate method. For example, a glycoside sweetener, which is a test substance, is added in an amount to have Brix 10 on a sucrose basis to prepare an aqueous solution. The surface tension of the prepared aqueous solution is measured by a plate method using an automatic surface tension meter (CBVP-Z type, manufactured by Kyowa Interface Science Co., Ltd).
Aqueous solutions containing RebA, RebD, and RebM (commercially available products) each were prepared. The contents of RebA, RebD, and RebM were aligned to Brix 10 on a sucrose basis. That is, the contents of RebA, RebD, and RebM were 333 ppm, 351 ppm, and 351 ppm, respectively. The surface tension of the obtained aqueous solution was measured by a plate method using an automatic surface tension meter (CBVP-Z type, manufactured by Kyowa Interface Science Co., Ltd). Water was used as a control and tested in the same manner.

[2] = Distribution ratio between pure water and toluene; format: physicochemical; settings: organic layer and aqueous layer could not be separated
Protocol: After each about 100 mL of pure water and toluene was charged into a separatory funnel, 30 mg of each steviol glycoside was added. The separatory funnel was sealed to avoid liquid leakage, and stirred with shaking using a shaker for about 30 minutes, and then allowed to stand. When the liquid layer was separated into two layers, the distribution ratio was measured by LCMS after sampling was performed from each layer.

[3] = Dissolution of sample in 1% DMSO-containing PBS; format: physicochemical; settings: final concentration of 1.5 mM (#24)
Protocol: To 20 mg of RebC, 21 μL of DMSO (manufactured by FUJIFILM Wako Pure Chemical Corporation, model number: 037-24053) was added. The mixture was then stirred by vortex and allowed to stand for several hours to obtain a stock solution having a RebC concentration of 1,000 mM. The obtained stock solution and PBS were used to prepare a 10 mM solution.
The 10 mM solution was diluted as needed with 1% DMSO-containing PBS to obtain Sample G-1 mM to Sample G-10 mM. The concentrations of RebC are described in Table 1.
For Sample B processed, final concentrations of 0.025 mM (#11) and 0.05 mM (#12) were added to the concentrations to be tested (0.1 to 2.5 mM).

rebaudioside B [RebB]
amount of GLP-1 secretion compared with no sample (H716): significantly larger amounts of GLP-1 secretion than no sample

C=C1C[C@@]23CC[C@H]4[C@@](C)(CCC[C@@]4(C)C(=O)O[C@@H]4O[C@H](CO)[C@@H](O)[C@H](O)[C@H]4O)[C@@H]2CC[C@]1(O[C@@H]1O[C@H](CO)[C@@H](O)[C@H](O)[C@H]1O[C@@H]1O[C@H](CO)[C@@H](O)[C@H](O)[C@H]1O)C3 [stevioside, Stevioside]
amount of GLP-1 secretion compared with no sample (H716): significantly larger amounts of GLP-1 secretion than no sample

C=C1C[C@@]23CC[C@H]4[C@@](C)(CCC[C@@]4(C)C(=O)O[C@@H]4O[C@H](CO)[C@@H](O)[C@H](O)[C@H]4O)[C@@H]2CC[C@]1(O[C@@H]1O[C@H](CO)[C@@H](O)[C@H](O[C@@H]2O[C@H](CO)[C@@H](O)[C@H](O)[C@H]2O)[C@H]1O[C@@H]1O[C@H](CO)[C@@H](O)[C@H](O)[C@H]1O)C3 [RebA, Rebaudioside A]
amount of GLP-1 secretion compared with no sample (H716): significantly larger amounts of GLP-1 secretion than no sample | surfactant effect (surface tension) [1]: higher than that of other glycosides | emulsification phenomenon when measuring the distribution ratio [2]: had an emulsification phenomenon

C[C@H](CC[C@@H](O[C@@H]1O[C@H](CO[C@@H]2O[C@H](CO)[C@@H](O)[C@H](O)[C@H]2O)[C@@H](O)[C@H](O)[C@H]1O[C@@H]1O[C@H](CO)[C@@H](O)[C@H](O)[C@H]1O)C(C)(C)O)[C@H]1CC[C@@]2(C)[C@@H]3CC=C4[C@@H](CC[C@H](O[C@@H]5O[C@H](CO[C@@H]6O[C@H](CO)[C@@H](O)[C@H](O)[C@H]6O)[C@@H](O)[C@H](O)[C@H]5O)C4(C)C)[C@]3(C)[C@H](O)C[C@]12C [MogV, mogroside V]
amount of GLP-1 secretion compared with no sample (H716): significantly larger amounts of GLP-1 secretion than no sample

rebaudioside C [RebC]
amount of GLP-1 secretion compared with no sample (H716): significantly larger amounts of GLP-1 secretion than no sample | dissolution of sample [3]: not able to be dissolved
